This is an account of results in patent US20200009020A1, “Caries-Resistant Composite Resin” (Den-Mat Holdings, LLC, priority 2016, published 2020).

For one data set, the system named is e. coli. The experiment in a line: Antimicrobial activity, modified AATCC TM 100-2012 for solid and composite materials. Type of data set: cell-based. The following applies: 1.0% Wt. Fract. ZnO in a direct filling composite resin. The procedure: (§1) Zinc oxide has been tested for antimicrobial activity in this invention according to a test that is based upon the International Standard AATCC TM 100-2012. The AATCC TM 100-2012 standard tests for microbial activity on textiles, so the test was modified for use on solid and composite materials.
(§2) As discussed above, microbial activity is measured using a modified AATCC TM 100-2012 standard for use on solid and composite materials.

The subject of the next data set is strep mutans. Described as above. It is filed as cell-based. The following applies: 1.0% Wt. Fract. ZnO in a direct filling composite resin. The method, then: as §1, §2
Data set [1] can be described thus: Translucency of a direct filling composite resin. It is filed as physicochemical. An excerpt: When zinc oxide is incorporated into a chemical for use in the oral cavity, it is typically incorporated for its function as an opacifying agent and can be added to a product for this function alone. However, there is a limit to the amount that can be added. Resins are esthetic restorative materials and require high translucency to be esthetic. For this reason, the amount of zinc oxide that may be added is limited to less than 0.8 wt. fract. See Table 5 for the upper limits of zinc oxide that can be incorporated into a direct fill composite resin while maintaining high translucency.
In Table 5, as the wt. fraction of Zinc Oxide is increased, the opacity also increases to a level that is not considered suitable for use as a dental composite resin for esthetic purposes. For esthetic purposes, the dental composite resin must be sufficiently translucent to mimic the appearance of natural dentin. Beyond this level, the opacity becomes too high and the restoration appears as chalky white.

For the next data set, the system named is bacteria. The experiment in a line: Antimicrobial activity, modified AATCC TM 100-2012 (general statement). It is filed as cell-based. The following applies: modified AATCC TM 100-2012 test.
Excerpt: as §1

`[O]=[Zn]` [Zinc Oxide, zinc oxide]: in the data set with e. coli, the “% Reduction of e coli” value was found to be 100%. Besides, the “% reduction of strep mutans” value in the data set with strep mutans was 100%. Moreover, the Translucency result is “pass” in data set [1] (Wt. Fract. ZnO 0.8 in a direct filling composite resin) and “fail” in data set [1] (Wt. Fract. ZnO 1.0 in a direct filling composite resin). Besides, the antimicrobial activity result in the data set with bacteria is on record as “effective in killing bacteria”.
